Here are results for four molecules from paper PMC11566078, “Bactericidal activities and biochemical features of 16 antimicrobial peptides against bovine-mastitis causative pathogens” (Veterinary Research, 2024).

≈ marks a conversion by molar mass, not a printed value. Like-named read-outs stand apart in the source and are kept apart here. A value given as a limit tells only on which side of the number the result lay.

What all share (type): cell-based
The subject of assay [1] is Escherichia coli ATCC 25922. Kind of assay: microbe, parasite or virus in culture. To be noted: MH broth, WST colourimetric, 1.5 × 10^5 cells/well, 37 °C 6 h + 2 h reagent, A450, triplicate; for MIC: Escherichia coli, ATCC25922, 8 h, read-out: Minimal inhibitory concentration, Escherichia coli. As to the method: (§1) The standard bacterial strains used for antimicrobial activity assays include Staphylococcus aureus ATCC (American Type Culture Collection, Manassas, VA, USA) 6538, Bacillus cereus ATCC 10876, Enterococcus faecalis ATCC 29212, Streptococcus […] 27956, Streptococcus dysgalactiae ATCC 27957, Streptococcus equi subsp. zooepidemicus ATCC 43079, Escherichia coli ATCC 25922, and Pseudomonas aeruginosa ATCC 27853. Most bacterial strains were cultured in LB medium except for E. faecalis and streptococci, which were cultivated in brain heart infusion (BHI) broth (BD Bioscience). […] Experiments were conducted in triplicate.

Assay [2] concerns Bacillus cereus ATCC 10876. Kind of assay: microbe, parasite or virus in culture. The following applies: ATCC 10876, MH broth, WST colourimetric, 37 °C 6 h, triplicate; for MIC: Bacillus cereus, ATCC10876, read-out: Minimal inhibitory concentration, Bacillus cereus. As to the method:
as §1

In assay [3] the test system is Staphylococcus aureus ATCC 6538. Description: microbe, parasite or virus in culture. The following applies: ATCC 6538, MH broth, WST colourimetric, 37 °C 6 h, triplicate; for MIC: Staphylococcus aureus, ATCC6538, read-out: Minimal inhibitory concentration, Staphylococcus aureus. On the procedure: as §1
The test system of assay [4] is Streptococcus equi subsp. zooepidemicus ATCC 43079. Description: microbe, parasite or virus in culture. The following applies: ATCC 43079, BHI broth, WST colourimetric, 37 °C 6 h, triplicate; for MIC: Streptococcus equi, ATCC43079, read-out: Minimal inhibitory concentration, Streptococcus equi subsp. zooepidemicus. On the procedure: as §1
Assay [5] deals with Enterococcus faecalis ATCC 29212. Description: microbe, parasite or virus in culture. The following applies: ATCC 29212, BHI broth, WST colourimetric, 37 °C 6 h, triplicate; for MIC: Enterococcus faecalis, ATCC29212, read-out: Minimal inhibitory concentration, Enterococcus faecalis. As to the method:
as §1

Assay [6] has as its system Streptococcus dysgalactiae ATCC 27957. Kind of assay: microbe, parasite or virus in culture. The following applies: ATCC 27957, BHI broth, WST colourimetric, 37 °C 6 h, triplicate; for MIC: Streptococcus dysgalactiae, ATCC27957, read-out: Minimal inhibitory concentration, Streptococcus dysgalactiae. As to the method:
as §1

The test system of assay [7] is Streptococcus agalactiae ATCC 27956. Description: microbe, parasite or virus in culture. To be noted: ATCC 27956, BHI broth, WST colourimetric, 37 °C 6 h, triplicate; for MIC: Streptococcus agalactiae, ATCC27956, read-out: Minimal inhibitory concentration, Streptococcus agalactiae. On the procedure: as §1
The test system of assay [8] is Pseudomonas aeruginosa ATCC 27853. Kind of assay: microbe, parasite or virus in culture. To be noted: ATCC 27853, CAMHB, WST colourimetric, 37 °C 6 h, triplicate; for MIC: Pseudomonas aeruginosa, ATCC27853, read-out: Minimal inhibitory concentration, Pseudomonas aeruginosa. As to the method:
as §1

Assay [9] concerns Staphylococcus haemolyticus. Description: MIC against field isolate from milk with high SCC. To be noted: for MIC: Staphylococcus haemolyticus, read-out: Minimal inhibitory concentration, Staphylococcus haemolyticus. On the procedure: (§2) All plates were cultivated aerobically.
(§3) Experiments were conducted in triplicate.

Assay [10] relates to Streptococcus uberis. Kind of assay: microbe, parasite or virus in culture. To be noted: Streptococcus uberis; field isolate from milk; BHI broth; WST colourimetric, 37 °C 6 h; triplicate; read-out: Minimal inhibitory concentration, Streptococcus uberis. As to the method:
as §2, §3

In assay [11] the test system is Aeromonas hydrophila. Description: microbe, parasite or virus in culture. The following applies: Aeromonas hydrophila; Gram-negative field isolate from milk; BHI broth; WST colourimetric, 37 °C 6 h; triplicate; read-out: Minimal inhibitory concentration, Aeromonas hydrophila. As to the method:
as §2, §3

Assay [12] relates to Glutamicibacter halophytocola. Kind of assay: microbe, parasite or virus in culture. To be noted: Glutamicibacter halophytocola; field isolate from milk; BHI broth; WST colourimetric, 37 °C 6 h; triplicate; read-out: Minimal inhibitory concentration, Glutamicibacter halophytocola. As to the method:
as §2, §3

The subject of assay [13] is Corynebacterium simulans. Kind of assay: microbe, parasite or virus in culture. To be noted: Corynebacterium simulans; field isolate from milk; BHI broth; WST colourimetric, 37 °C 6 h; triplicate; read-out: Minimal inhibitory concentration, Corynebacterium simulans. As to the method:
as §2, §3

The subject of assay [14] is Staphylococcus epidermidis. Description: microbe, parasite or virus in culture. To be noted: field isolate from milk, WST colourimetric, 37 °C 6 h, triplicate; for MIC: Staphylococcus epidermidis, read-out: Minimal inhibitory concentration, Staphylococcus epidermidis. On the procedure: as §2, §3
The subject of assay [15] is Staphylococcus chromogenes. Description: microbe, parasite or virus in culture. The following applies: for MIC: Staphylococcus chromogenes, read-out: Minimal inhibitory concentration, Staphylococcus chromogenes. As to the method: as §2, §3
Assay [16] has as its system Staphylococcus xylosus. Description: microbe, parasite or virus in culture. The following applies: for MIC: Staphylococcus xylosus, read-out: Minimal inhibitory concentration, Staphylococcus xylosus. On the procedure:
as §2, §3

[17] abbreviates: field isolate from milk, WST colourimetric, 37 °C 6 h, triplicate.
Setting [18] is: value in brackets, Additional file 6, field isolate.

Regarding `CC1(C)S[C@@H]2[C@H](NC(=O)[C@H](N)c3ccccc3)C(=O)N2[C@H]1C(=O)O` [Ampicillin, reference compound], the MIC in assay [1] stood at 5 µg/mL; in assay [2], 80 µg/mL (≈ 229 µM); in assay [3] it was 2 µg/mL (≈ 5.72 µM); in assay [4] it was 2 µg/mL (≈ 5.72 µM); in assay [5], 10 µg/mL (≈ 28.6 µM); in [6], 2 µg/mL (≈ 5.72 µM). Also, the MIC is 4 µg/mL (≈ 11.4 µM) in assay [7]; over 640 µg/mL in assay [8]; 10 µg/mL in assay [9] (setting [17]); 0.0286 µM in [9] (setting [18]); over 240 µg/mL in assay [10]; over 240 µg/mL in assay [11]. In addition, the MIC in [12] is 15 µg/mL (≈ 42.9 µM); in [13], over 240 µg/mL; in [14], 5 µg/mL (≈ 14.3 µM); in assay [15] (setting [17]) it was 5 µg/mL; in [15] (setting [18]), 0.0143 µM; in [16] (setting [17]) it was 5 µg/mL. Moreover, the MIC in assay [16] (setting [18]) came to 0.0143 µM.

Take `O=C(N[C@H](CO)[C@H](O)c1ccc([N+](=O)[O-])cc1)C(Cl)Cl` [Chloramphenicol, reference compound]: the MIC worked out at 3 µg/mL in assay [1]; 10 µg/mL (≈ 30.9 µM) in [2]; 8 µg/mL (≈ 24.8 µM) in assay [3]; 5 µg/mL (≈ 15.5 µM) in [4]; 10 µg/mL (≈ 30.9 µM) in [5]; 4 µg/mL (≈ 12.4 µM) in assay [6]. Moreover, the MIC in [7] is 5 µg/mL (≈ 15.5 µM); in assay [8], 80 µg/mL (≈ 248 µM); in assay [9] (setting [17]), 10 µg/mL; in [9] (setting [18]) it was 0.031 µM; in [10] it was 50 µg/mL (≈ 155 µM); in assay [11] it was 5 µg/mL (≈ 15.5 µM). In addition, the MIC in [12] is 3 µg/mL (≈ 9.28 µM); in assay [13], 8 µg/mL (≈ 24.8 µM); in assay [14], 5 µg/mL (≈ 15.5 µM); in [15] (setting [17]) it was 18 µg/mL; in assay [15] (setting [18]), 0.0558 µM; in assay [16] (setting [17]), 8 µg/mL. In addition, the MIC in assay [16] (setting [18]) worked out at 0.0248 µM.

For `CNC(C)C1CCC(N)C(OC2C(N)CC(N)C(OC3OCC(C)(O)C(NC)C3O)C2O)O1` (stereo not drawn) [Gentamicin, reference compound], the MIC in assay [1] was determined as 1 µg/mL; in assay [2] it was 1 µg/mL (≈ 2.09 µM); in assay [3], 1 µg/mL (≈ 2.09 µM); in assay [4] it was 45 µg/mL (≈ 94.2 µM); in assay [5], 90 µg/mL (≈ 188 µM); in assay [6] it was 15 µg/mL (≈ 31.4 µM). Also, the MIC in [7] is 75 µg/mL (≈ 157 µM); in [8], 1 µg/mL (≈ 2.09 µM); in assay [9] (setting [17]), 10 µg/mL; in assay [9] (setting [18]), 0.0209 µM; in assay [10], 60 µg/mL (≈ 126 µM); in assay [11], 4 µg/mL (≈ 8.38 µM). Further, the MIC in [12] turned out to be 3 µg/mL (≈ 6.28 µM); in [13], 10 µg/mL (≈ 20.9 µM); in assay [14] it was 4 µg/mL (≈ 8.38 µM); in assay [15] (setting [17]) it was 2 µg/mL; in assay [15] (setting [18]) it was 0.0042 µM; in assay [16] (setting [17]) it was 1 µg/mL. The MIC in assay [16] (setting [18]) came out at 0.0021 µM.

As to “Lysostaphin: bacteriocin produced by Staphylococcus simulans, purchased (Sigma Aldrich)”, in [1], the “Minimal inhibitory concentration, Escherichia coli” value is reported as > 160 (29.7) μg/mL. In assay [2], the “Minimal inhibitory concentration, Bacillus cereus” value is reported as > 160 (29.7) μg/mL. Moreover, the “Minimal inhibitory concentration, Staphylococcus aureus” value in assay [3] came out at 1 µg/mL. Besides, the “Minimal inhibitory concentration, Streptococcus equi subsp. zooepidemicus” value in [4] is on record as > 160 (29.7) μg/mL. For the same molecule, the “Minimal inhibitory concentration, Enterococcus faecalis” value in [5] is on record as > 160 (29.7) μg/mL. Also, the “Minimal inhibitory concentration, Streptococcus dysgalactiae” value in [6] is listed as > 160 (29.7) μg/mL. The “Minimal inhibitory concentration, Streptococcus agalactiae” value in assay [7] is on record as > 160 (29.7) μg/mL. Also, the “Minimal inhibitory concentration, Pseudomonas aeruginosa” value in assay [8] is > 160 (29.7) μg/mL. For the same molecule, the “Minimal inhibitory concentration, Staphylococcus haemolyticus” value in [9] (setting [17]) is 1 (37.3) μg/mL. Besides, the “Minimal inhibitory concentration, Staphylococcus epidermidis” value in [14] is recorded as 1 (37.3) μg/mL. Also, in assay [15] (setting [17]), the “Minimal inhibitory concentration, Staphylococcus chromogenes” value is recorded as 0.25 (9.3) μg/mL. In addition, the “Minimal inhibitory concentration, Staphylococcus xylosus” value in [16] (setting [17]) is recorded as 0.5 (18.7) μg/mL.
